Assays:
[1] = Hepatic clearance in Sprague-Dawley rat by LC-MS/MS analysis; type: ADME; details: in vivo
[2] = target: T1, Phosphatidylinositol 4,5-bisphosphate 3-kinase catalytic subunit gamma isoform (Homo sapiens, UniProt P48736); assay: Inhibition of PI3Kgamma (unknown origin) in […] stimulated human THP-1 cells assessed as reduction in Akt phosphorylation level at Ser473 residue preincubated for 60 mins followed by rhMCP-1 stimulation and measured after 2 mins by AlphaLisa assay; type: cell-based
[3] = target: T1, Phosphatidylinositol 4,5-bisphosphate 3-kinase catalytic subunit gamma isoform; assay: Inhibition of PI3Kgamma (unknown origin) using PIP2 as substrate preincubated for 1 hr followed by substrate addition and measured after 60 mins in presence of ATP by ADP-glo assay
[4] = Metabolic stability in human hepatocytes assessed as intrinsic clearance per 10^6 cells at 0.5 uM by LC-MS/MS analysis; type: ADME, cell-based, Hepatocyte; details: read-out: CLH
[5] = Metabolic stability in rat hepatocyte assessed as intrinsic clearance per 10^8 cells at 0.5 uM by LC-MS/MS analysis; type: ADME, cell-based; details: hepatocytes
[6] = target: Phosphatidylinositol 4,5-bisphosphate 3-kinase catalytic subunit alpha isoform (Homo sapiens, UniProt P42336); assay: Inhibition of PI3Kalpha (unknown origin) using PIP2 as substrate preincubated for 1 hr followed by substrate addition and measured after 60 mins in presence of ATP by ADP-glo assay
[7] = target: T2, Phosphatidylinositol 4,5-bisphosphate 3-kinase catalytic subunit delta isoform (Homo sapiens, UniProt O00329); assay: Inhibition of PI3Kdelta (unknown origin) using PIP2 as substrate preincubated for 1 hr followed by substrate addition and measured after 60 mins in presence of ATP by ADP-glo assay
T2 sequence (O00329 whole entry): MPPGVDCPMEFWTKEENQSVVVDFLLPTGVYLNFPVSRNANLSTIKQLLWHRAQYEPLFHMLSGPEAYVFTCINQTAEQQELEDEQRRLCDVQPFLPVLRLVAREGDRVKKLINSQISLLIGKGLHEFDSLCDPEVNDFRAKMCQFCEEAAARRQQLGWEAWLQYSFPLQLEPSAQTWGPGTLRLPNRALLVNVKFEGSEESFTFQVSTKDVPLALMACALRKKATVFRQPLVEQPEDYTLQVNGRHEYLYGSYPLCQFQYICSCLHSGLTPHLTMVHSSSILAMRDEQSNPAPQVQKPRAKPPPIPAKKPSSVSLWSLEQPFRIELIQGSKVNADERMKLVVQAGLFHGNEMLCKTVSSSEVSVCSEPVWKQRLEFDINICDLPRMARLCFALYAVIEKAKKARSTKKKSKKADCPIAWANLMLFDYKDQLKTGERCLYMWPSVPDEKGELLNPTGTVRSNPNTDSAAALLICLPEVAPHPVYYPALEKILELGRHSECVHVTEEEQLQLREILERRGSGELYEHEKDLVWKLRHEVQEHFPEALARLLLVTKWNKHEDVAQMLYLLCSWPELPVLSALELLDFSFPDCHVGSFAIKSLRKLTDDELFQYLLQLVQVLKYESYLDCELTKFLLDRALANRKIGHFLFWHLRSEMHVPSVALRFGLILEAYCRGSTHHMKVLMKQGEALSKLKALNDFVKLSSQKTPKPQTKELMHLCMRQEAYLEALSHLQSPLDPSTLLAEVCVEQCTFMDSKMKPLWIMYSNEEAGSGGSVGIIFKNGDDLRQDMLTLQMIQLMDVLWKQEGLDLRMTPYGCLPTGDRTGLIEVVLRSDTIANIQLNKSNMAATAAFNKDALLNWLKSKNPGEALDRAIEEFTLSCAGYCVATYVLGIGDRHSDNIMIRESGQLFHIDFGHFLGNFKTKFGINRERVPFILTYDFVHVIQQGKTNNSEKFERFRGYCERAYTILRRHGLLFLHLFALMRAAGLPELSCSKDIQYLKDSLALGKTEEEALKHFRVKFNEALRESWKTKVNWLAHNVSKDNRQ

Homo sapiens [8] = species on record: Homo sapiens; assay: Selectivity ratio of IC50 for inhibition of PI3Kalpha (unknown origin) to IC50 for inhibition of PI3Kgamma (unknown origin)
Homo sapiens [9] = species on record: Homo sapiens; assay: Selectivity ratio of IC50 for inhibition of PI3Kdelta (unknown origin) to IC50 for inhibition of PI3Kgamma (unknown origin)
CYP3A4 = CYP3A4 (Homo sapiens, UniProt P08684); assay: in vitro; details: human liver microsomes, probe midazolam
Description: Time dependent inhibition of CYP3A4 in human liver microsomes at 10 uM using midazolam as substrate preincubated for 30 mins in presence of NADPH by LC/MS/MS analysis relative to control

[10] = target: T1, Phosphatidylinositol 4,5-bisphosphate 3-kinase catalytic subunit gamma isoform; assay: Inhibition of PI3Kgamma in SDF-1alpha stimulated human whole blood assessed as reduction in phospho-AKT kinase activity preincubated for 1 hr followed by SDF-1alpha stimulation and measured after 2 mins by flow cytometric analysis; type: tissue-based

T1 sequence (P48736 whole entry, canonical isoform): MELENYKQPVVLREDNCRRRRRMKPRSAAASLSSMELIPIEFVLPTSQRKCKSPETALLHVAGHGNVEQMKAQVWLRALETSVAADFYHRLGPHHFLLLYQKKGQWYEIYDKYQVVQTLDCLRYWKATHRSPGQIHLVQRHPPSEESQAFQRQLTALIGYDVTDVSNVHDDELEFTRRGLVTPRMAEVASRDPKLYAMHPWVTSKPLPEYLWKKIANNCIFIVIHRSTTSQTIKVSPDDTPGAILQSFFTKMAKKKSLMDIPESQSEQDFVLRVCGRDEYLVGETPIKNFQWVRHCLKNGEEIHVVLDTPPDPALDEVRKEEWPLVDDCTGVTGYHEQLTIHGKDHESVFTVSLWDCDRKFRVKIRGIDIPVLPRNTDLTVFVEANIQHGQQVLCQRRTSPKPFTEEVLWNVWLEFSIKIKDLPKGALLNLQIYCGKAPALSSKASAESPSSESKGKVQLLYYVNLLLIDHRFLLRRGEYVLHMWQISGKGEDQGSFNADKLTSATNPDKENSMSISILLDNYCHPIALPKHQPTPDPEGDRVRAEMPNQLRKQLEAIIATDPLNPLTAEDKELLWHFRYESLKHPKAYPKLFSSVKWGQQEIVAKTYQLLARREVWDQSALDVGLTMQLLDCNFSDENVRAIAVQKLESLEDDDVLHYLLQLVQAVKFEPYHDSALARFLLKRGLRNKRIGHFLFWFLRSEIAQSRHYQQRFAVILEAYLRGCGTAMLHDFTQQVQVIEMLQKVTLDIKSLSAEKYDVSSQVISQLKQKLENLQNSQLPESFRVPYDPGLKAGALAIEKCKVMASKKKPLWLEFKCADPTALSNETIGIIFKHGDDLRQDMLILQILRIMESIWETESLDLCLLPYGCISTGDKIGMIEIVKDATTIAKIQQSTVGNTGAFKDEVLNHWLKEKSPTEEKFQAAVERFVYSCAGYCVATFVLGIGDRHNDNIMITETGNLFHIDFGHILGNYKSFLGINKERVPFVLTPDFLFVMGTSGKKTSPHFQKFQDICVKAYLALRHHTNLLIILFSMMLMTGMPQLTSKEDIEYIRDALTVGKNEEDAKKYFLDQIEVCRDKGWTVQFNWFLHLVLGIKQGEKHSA
Phosphatidylinositol 4,5-bisphosphate 3-kinase catalytic subunit alpha isoform, sequence (P42336 whole entry, canonical isoform): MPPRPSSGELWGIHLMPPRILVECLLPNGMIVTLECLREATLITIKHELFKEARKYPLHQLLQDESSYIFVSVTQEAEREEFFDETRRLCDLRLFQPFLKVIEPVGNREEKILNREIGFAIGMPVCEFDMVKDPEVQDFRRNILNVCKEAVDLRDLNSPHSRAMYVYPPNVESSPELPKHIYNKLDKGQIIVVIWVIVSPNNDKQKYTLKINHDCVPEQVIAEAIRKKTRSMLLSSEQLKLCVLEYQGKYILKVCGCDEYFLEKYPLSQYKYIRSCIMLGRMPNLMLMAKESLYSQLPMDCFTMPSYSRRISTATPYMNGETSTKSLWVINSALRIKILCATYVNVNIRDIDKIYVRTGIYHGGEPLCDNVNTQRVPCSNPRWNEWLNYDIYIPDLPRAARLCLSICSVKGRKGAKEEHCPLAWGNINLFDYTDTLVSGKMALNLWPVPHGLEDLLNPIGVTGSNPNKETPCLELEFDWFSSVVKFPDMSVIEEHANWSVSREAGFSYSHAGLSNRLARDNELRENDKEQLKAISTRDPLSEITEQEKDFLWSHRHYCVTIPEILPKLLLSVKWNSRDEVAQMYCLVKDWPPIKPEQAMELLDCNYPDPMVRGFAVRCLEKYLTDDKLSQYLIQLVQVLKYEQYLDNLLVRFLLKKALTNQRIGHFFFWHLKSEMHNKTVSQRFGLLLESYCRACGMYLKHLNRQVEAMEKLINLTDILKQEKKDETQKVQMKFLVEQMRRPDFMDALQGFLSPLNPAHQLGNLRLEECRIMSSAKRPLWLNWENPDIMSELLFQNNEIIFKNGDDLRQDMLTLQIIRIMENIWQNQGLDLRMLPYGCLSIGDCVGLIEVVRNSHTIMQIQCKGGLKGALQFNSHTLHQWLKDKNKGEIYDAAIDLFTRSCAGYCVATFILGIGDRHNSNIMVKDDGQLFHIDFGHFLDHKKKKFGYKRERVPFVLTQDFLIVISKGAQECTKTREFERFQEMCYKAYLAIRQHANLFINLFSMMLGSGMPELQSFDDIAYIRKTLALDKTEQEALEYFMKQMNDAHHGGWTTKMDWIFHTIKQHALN
CYP3A4, sequence (P08684 whole entry, canonical isoform): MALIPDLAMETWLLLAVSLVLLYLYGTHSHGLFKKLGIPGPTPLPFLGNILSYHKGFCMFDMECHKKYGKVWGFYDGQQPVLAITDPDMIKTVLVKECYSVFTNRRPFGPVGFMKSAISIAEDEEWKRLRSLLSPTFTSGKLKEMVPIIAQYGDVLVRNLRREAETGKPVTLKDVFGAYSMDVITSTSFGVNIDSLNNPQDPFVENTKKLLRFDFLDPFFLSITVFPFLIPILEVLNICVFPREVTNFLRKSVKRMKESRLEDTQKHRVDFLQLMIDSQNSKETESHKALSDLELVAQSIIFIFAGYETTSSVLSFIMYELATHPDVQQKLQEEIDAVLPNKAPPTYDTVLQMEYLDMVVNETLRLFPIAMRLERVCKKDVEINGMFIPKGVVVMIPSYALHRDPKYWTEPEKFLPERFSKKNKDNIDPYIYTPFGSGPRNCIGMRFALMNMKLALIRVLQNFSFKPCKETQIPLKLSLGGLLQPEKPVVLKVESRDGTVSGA

Cc1cc(-c2ccn3nc(N)c(C(=O)NC4CCC4)c3n2)cc2c1C(=O)N([C@@H](C)C1CC1)C2
CLH [1]: 76.7 mL/min/kg | IC50 [2]: 292 nM | IC50 [3]: 2.3 nM | hepatocyte CLint at 0.5 µM [4]: 29.3 µL/min/1e6 cells | hepatocyte intrinsic clearance [5]: 82.7 µL/min | IC50 [6]: 3660 nM | IC50 [7]: 1590 nM | Ratio IC50 (Homo sapiens [8]): 1580 | Ratio IC50 (Homo sapiens [9]): 668 | inhibition at 30 min, 10 µM (CYP3A4): 46%

Cc1cc(-c2ccn3nc(N)c(C(=O)NC4COC4)c3n2)cc2c1C(=O)N([C@@H](C)C1CC1)C2
CLH [1]: 33 mL/min/kg | IC50 [2]: 156 nM | IC50 [3]: 1.8 nM | hepatocyte CLint at 0.5 µM [4]: 6.21 µL/min/1e6 cells | hepatocyte intrinsic clearance [5]: 4.59 µL/min | IC50 [6]: 833 nM | IC50 [7]: 698 nM | Ratio IC50 (Homo sapiens [8]): 464 | Ratio IC50 (Homo sapiens [9]): 388 | inhibition at 30 min, 10 µM (CYP3A4): 12%

Cc1cc(-c2ccn3ncc(C(=O)Nc4cnn(C)c4)c3n2)cc2c1C(=O)N([C@@H](C)C1CC1)C2
CLH [1]: 48.3 mL/min/kg | IC50 [2]: 638 nM | IC50 [3]: 34.1 nM | hepatocyte CLint at 0.5 µM [4]: 7.31 µL/min/1e6 cells | hepatocyte intrinsic clearance [5]: 12.2 µL/min | inhibition at 30 min, 10 µM (CYP3A4): 33%

C[C@H](N1Cc2cc(-c3ccn4nc(N)c(C(=O)N[C@@H](CO)C5CC5)c4n3)cc(C3CC3)c2C1=O)C(F)(F)F
IC50 [2]: 80 nM | IC50 [3]: 2.5 nM | hepatocyte CLint at 0.5 µM [4]: 13.3 µL/min/1e6 cells | hepatocyte intrinsic clearance [5]: 1.69 µL/min | IC50 [10]: 1300 nM | IC50 [6]: > 10000 nM | IC50 [7]: 3980 nM | Ratio IC50 (Homo sapiens [8]): > 3970 | Ratio IC50 (Homo sapiens [9]): 1580

Cc1cc(-c2ccn3nc(N)c(C(=O)NC4CC4)c3n2)cc2c1C(=O)N([C@@H](C)C1CC1)C2
CLH [1]: 6.7 mL/min/kg | IC50 [2]: 212 nM | IC50 [3]: 3.6 nM | hepatocyte CLint at 0.5 µM [4]: 8.92 µL/min/1e6 cells | hepatocyte intrinsic clearance [5]: 1.5 µL/min | IC50 [6]: 3300 nM | IC50 [7]: 1670 nM | Ratio IC50 (Homo sapiens [8]): 904 | Ratio IC50 (Homo sapiens [9]): 460 | inhibition at 30 min, 10 µM (CYP3A4): 27%

C[C@@H](C1CC1)N1Cc2cc(-c3ccn4nc(N)c(C(=O)NC5CC5)c4n3)cc(NS(C)(=O)=O)c2C1=O
CLH [1]: 12 mL/min/kg | IC50 [2]: 37 nM | IC50 [3]: 2.7 nM | hepatocyte CLint at 0.5 µM [4]: < 1.2 µL/min/1e6 cells | hepatocyte intrinsic clearance [5]: < 1.2 µL/min | IC50 [6]: 590 nM | IC50 [7]: 417 nM | Ratio IC50 (Homo sapiens [9]): 157 | inhibition at 30 min, 10 µM (CYP3A4): 37%

CNS(=O)(=O)c1cc(-c2ccn3nc(N)c(C(=O)NC4CC4)c3n2)cc2c1C(=O)N([C@@H](C)C1CC1)C2
CLH [1]: 35 mL/min/kg | IC50 [2]: 36 nM | IC50 [3]: 2.7 nM | hepatocyte CLint at 0.5 µM [4]: 4.46 µL/min/1e6 cells | hepatocyte intrinsic clearance [5]: 4.91 µL/min | IC50 [6]: 519 nM | IC50 [7]: 256 nM | Ratio IC50 (Homo sapiens [9]): 96 | inhibition at 30 min, 10 µM (CYP3A4): 34%

C[C@@H](C1CC1)N1Cc2cc(-c3ccn4nc(N)c(C(=O)NC5CC5)c4n3)cc(S(=O)(=O)C3CC3)c2C1=O
CLH [1]: 41.7 mL/min/kg | IC50 [2]: 56 nM | IC50 [3]: 1.7 nM | hepatocyte CLint at 0.5 µM [4]: 1.99 µL/min/1e6 cells | hepatocyte intrinsic clearance [5]: < 1.2 µL/min | IC50 [6]: 384 nM | IC50 [7]: 172 nM | Ratio IC50 (Homo sapiens [8]): 223 | Ratio IC50 (Homo sapiens [9]): 100 | inhibition at 30 min, 10 µM (CYP3A4): 23%

C[C@@H](C1CC1)N1Cc2cc(-c3ccn4nc(N)c(C(=O)NC5CC5)c4n3)cc(OC(F)(F)F)c2C1=O
CLH [1]: 8.3 mL/min/kg | IC50 [2]: 58 nM | IC50 [3]: 3.6 nM | hepatocyte CLint at 0.5 µM [4]: 1.67 µL/min/1e6 cells | hepatocyte intrinsic clearance [5]: < 1.2 µL/min | IC50 [6]: 1480 nM | IC50 [7]: 1860 nM | Ratio IC50 (Homo sapiens [8]): 411 | Ratio IC50 (Homo sapiens [9]): 518 | inhibition at 30 min, 10 µM (CYP3A4): 20%

Reference: ChEMBL document CHEMBL5154644, “Design, Synthesis, and Structure-Activity Relationship Optimization of Pyrazolopyrimidine Amide Inhibitors of Phosphoinositide 3-Kinase γ (PI3Kγ)” (J Med Chem, 2022)
